Test results from US20260265699A1, “STANDARDISING PLURIPOTENT STEM CELLS” (United Kingdom Research and Innovation, priority 2023, published 2026).
Entries after “also recorded” stand apart in the source; their conditions may differ.

Assays:
Assay type in all cases: cell-based, human
[1] = test system: PSC lines that did not readily differentiate into neural tissue; assay: Cerebral organoid differentiation, unguided protocol (STEMdiff Cerebral Organoid Kit), panel of bad differentiator lines; conditions: for Effect: organoid morphology: inhibition of Wnt at organoid stage, added at embedding stage
Description: The so called “unguided protocol” relies on the natural propensity of PSCs to differentiate to neural fate and specifically forebrain when not exposed to any growth factors. The inventors cultured PSCs in Stemflex (Thermo) medium on plates coated with Matrigel growth factor reduced (Corning) and for generation of brain organoids they used STEMdiff Cerebral Organoid Kit (Stemcell Technologies). […] To address this variability that plagues not only the neural organoid field but also others that rely on 2D and 3D differentiation to a variety of cell types, the inventors investigated the potential sources of this variability in PSCs and potential treatments to address this problem or, in other words, to standardise the performance of PSCs during differentiation.
Because neural differentiation represents the default program upon pluripotency exit, the ability of a cell line to undergo such unguided differentiation is also a good indication of their pluripotent state. The other approach was to in depth characterise PSC lines that either produce good or bad organoids by proteomics and phosphoproteomics, analysis of already available bulk RNAseq data to learn about their transcriptome, and by ATACseq to learn about open chromatin patterns. […] Based on the combination of information gathered from both approaches, a number of treatments were chosen to test on the bad differentiators.

PS cells = assay: PSC basal (maintenance) culture; conditions: inhibition of SRC at basal culture, prolonged exposure
Description: (§1) The so called “unguided protocol” relies on the natural propensity of PSCs to differentiate to neural fate and specifically forebrain when not exposed to any growth factors. The inventors cultured PSCs in Stemflex (Thermo) medium on plates coated with Matrigel growth factor reduced (Corning) and for generation of brain organoids they used STEMdiff Cerebral Organoid Kit (Stemcell Technologies). Despite these highly standardised conditions (FIG. 1A), the outcome of the protocol (i.e. the identity and quality of the tissues produced) can vary depending on the cell line that was used in the protocol or even between different batches of the same line (FIGS. 1 B and C). This makes producing good quality organoids from different lines difficult and unpredictable. To address this variability that plagues not only the neural organoid field but also others that rely on 2D and 3D differentiation to a variety of cell types, the inventors investigated the potential sources of this variability in PSCs and potential treatments to address this problem or, in other words, to standardise the performance of PSCs during differentiation.
There is a huge body of literature describing potential sources of PSC variability and a similar number of publications about ways to address this in a particular context, for example to increase efficiency of differentiation towards a certain tissue type. […]

burb1 cells = assay: Cerebral organoid differentiation, unguided protocol, burb1 line
Description: (§2) The so called “unguided protocol” relies on the natural propensity of PSCs to differentiate to neural fate and specifically forebrain when not exposed to any growth factors. The inventors cultured PSCs in Stemflex (Thermo) medium on plates coated with Matrigel growth factor reduced (Corning) and for generation of brain organoids they used STEMdiff Cerebral Organoid Kit (Stemcell Technologies). Despite these highly standardised conditions (FIG. 1A), the outcome of the protocol (i.e. the identity and quality of the tissues produced) can vary depending on the cell line that was used in the protocol or even between different batches of the same line (FIGS. 1 B and C). This makes producing good quality organoids from different lines difficult and unpredictable. To address this variability that plagues not only the neural organoid field but also others that rely on 2D and 3D differentiation to a variety of cell types, the inventors investigated the potential sources of this variability in PSCs and potential treatments to address this problem or, in other words, to standardise the performance of PSCs during differentiation. […]
(§3) To establish such an approach, the inventors analysed the epigenetic state of human pluripotent stem cells and the role of epigenetics in development. […]

sojd3 cells = assay: Cerebral organoid differentiation, unguided protocol, sojd3 line; conditions: inhibition of Wnt in culture, Stemflex with 2-3 μM IWP2, long term (>8 passages)
Description: as §2, §3

fiaj1 cells = assay: Cerebral organoid differentiation, unguided protocol, fiaj1 line; conditions: fiaj 1
Description: as §1
(§4) Because neural differentiation represents the default program upon pluripotency exit, the ability of a cell line to undergo such unguided differentiation is also a good indication of their pluripotent state. […]

[2] = test system: kolf2 cells (organoid non-competent batch); assay: Cerebral organoid differentiation, unguided protocol, bad batch of kolf2; conditions: generation of organoids with MEK inhibition
Description: as §1, §4

COc1cccc(-c2cn(-c3ccc(CCN4CCC(O)CC4)cc3)c3ncnc(N)c23)c1 [CGP-77675]
Effect: organoid differentiation outcome ([1]; inhibition of SRC at basal culture): Worse organoid differentiation
Effect on PS cells in basal culture (PS cells): outcome, differentiation of PS

Cc1ccc2nc(NC(=O)CSc3nc4c(c(=O)n3-c3ccccc3)SCC4)sc2c1 [IWP2]
Effect: organoid morphology [1]: embedding stage improve
Effect: organoid generation / brain organoid competency (burb1 cells; inhibition of Wnt in culture, Stemflex with 2-3 μM IWP2, long term (>8 passages)): able to restore organoid competency; also recorded: acquired brain organoid competency; also recorded: improved organoid
Effect: organoid generation / brain organoid competency (sojd3 cells): did not improve; also recorded: no improvement in sojd3

O=C(NOC[C@H](O)CO)c1ccc(F)c(F)c1Nc1ccc(I)cc1F [PD0325901]
Effect: improvement of organoid differentiation (fiaj1 cells; generation of organoids with MEK inhibition): batch of kolf2, no
Effect: organoid differentiation [2]: Some improvement in bad

COc1ccc(N(C(=O)Oc2c(C)cccc2C)c2ccnc(Nc3ccc(N4CCN(C)CC4)cc3)n2)c(OC)c1 [WH-4-023]
Effect: organoid differentiation outcome ([1]; inhibition of SRC at organoid generation, alone): no improvement alone,
Effect: organoid differentiation outcome ([1]; inhibition of SRC at organoid generation, used alongside with HRG): improves outcome when used

recombinant human laminin 521 [L521]
Effect: organoid generation (burb1 cells; PSC culture on L521): improved organoid generation
Effect: organoid differentiation (fiaj1 cells; culture on L521 micropatterns, areas of correct differentiation a small percentage of organoid volume): worked to some extent in fiaj 1

B1: DKK-1: Wnt inhibition at organoid stage, added at Matrigel embedding (protein, UniProt O94907 32-266, looked up)
Dickkopf-related protein 1: TLNSVLNSNAIKNLPPPLGGAAGHPGSAVSAAPGILYPGGNKYQTIDNYQPYPCAEDEECGTDEYCASPTRGGDAGVQICLACRKRRKRCMRHAMCCPGNYCKNGICVSSDQNHFRGEIEETITESFGNDHSTLDGYSRRTTLSSKMYHTKGQEGSVCLRSSDCASGLCCARHFWSKICKPVLKEGQVCTKHRRKGSHGLEIFQRCYCGEGLSCRIQKDHHQASNSSRLHTCQRH
Effect: organoid morphology [1]: embedding stage improve
